Measurements taken from the supplement of paper PMC4862054.

Columns and labels:
Settings in all cases: incubation time: 72 h
[1] = tested on: BT-474; assay: normalised response (% of control), CellTox Green; higher = less cell death (100 = DMSO, 0 = benzethonium chloride kill control)
Summary of the method: (§1)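 CellTox Green fluorescence (485/520 nm) and, after 10 min at room temperature, CellTiter-Glo luminescence were read from breast cancer cell lines incubated 72 h in 384-well plates. Cells were seeded as 20 µl suspension onto compound at 5 concentrations in 10-fold steps over a 10,000-fold range chosen per compound. Each plate was normalised to 0.1 % DMSO (100) and a positive kill control (0). Values are normalised signals, one per concentration.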

[2] = tested on: BT-549; assay: as above
Summary of the method: as §1

[3] = tested on: CAL-120; assay: as above
Summary of the method: as §1

[4] = tested on: CAL-148; assay: as above
Summary of the method: as §1

[5] = tested on: CAL-51; assay: as above
Summary of the method: as §1

[6] = tested on: CAL-85-1; assay: as above
Summary of the method: as §1

[7] = tested on: DU-4475; assay: as above
Summary of the method: as §1

[8] = tested on: HCC1143; assay: as above
Summary of the method: as §1

[9] = tested on: HCC1599; assay: as above
Summary of the method: as §1

[10] = tested on: HDQ-P1; assay: as above
Summary of the method: as §1

[11] = tested on: MCF-10A; assay: as above
Summary of the method: as §1

[12] = tested on: MDA-MB-231; assay: as above
Summary of the method: as §1

[13] = tested on: MDA-MB-436; assay: as above
Summary of the method: as §1

[14] = tested on: MDA-MB-453; assay: as above
Summary of the method: as §1

[15] = tested on: MFM-223; assay: as above
Summary of the method: as §1

[16] = tested on: BT-474; assay: normalised response (% of control), CellTiter-Glo; higher = more viable cells (100 = DMSO, 0 = benzethonium chloride kill control)
Description: (§2)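 DSRT, 72 h incubation, CellTox Green / CellTiter-Glo readout. Signal is normalised to DMSO and benzethonium chloride controls. Value is the normalised response at dose 3.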

[17] = tested on: BT-549; assay: as above
Description: as §2

[18] = tested on: CAL-120; assay: as above
Description: as §2

[19] = tested on: CAL-148; assay: as above
Description: as §2

[20] = tested on: CAL-51; assay: as above
Description: as §2

[21] = tested on: CAL-85-1; assay: as above
Description: as §2

[22] = tested on: DU-4475; assay: as above
Description: as §2

[23] = tested on: HCC1143; assay: as above
Description: as §2

[24] = tested on: HCC1599; assay: as above
Description: as §2

[25] = tested on: HCC1937; assay: as above
Description: as §2

[26] = tested on: HDQ-P1; assay: as above
Description: as §2

[27] = tested on: Hs578T; assay: as above
Description: as §2

[28] = tested on: MCF-10A; assay: as above
Description: as §2

[29] = tested on: MDA-MB-231; assay: as above
Description: as §2

[30] = tested on: MDA-MB-436; assay: as above
Description: as §2

[31] = tested on: MDA-MB-453; assay: as above
Description: as §2

[32] = tested on: MDA-MB-468; assay: as above
Description: as §2

[33] = tested on: MFM-223; assay: as above
Description: as §2

[34] = tested on: SK-BR-3; assay: as above
Description: as §2

[35] = tested on: HCC1937; assay: normalised response (% of control), CellTox Green; higher = less cell death (100 = DMSO, 0 = benzethonium chloride kill control)
Summary of the method: as §1

[36] = tested on: Hs578T; assay: as above
Summary of the method: as §1

[37] = tested on: MDA-MB-468; assay: as above
Summary of the method: as §1

[38] = tested on: BT-474; assay: normalised response (% of control), CellTiter-Glo; higher = more viable cells (100 = DMSO, 0 = benzethonium chloride kill control); remark: listed apart in the source
Summary of the method: as §1

[39] = tested on: BT-549; assay: as above; remark: listed apart in the source
Summary of the method: as §1

[40] = tested on: CAL-120; assay: as above; remark: listed apart in the source
Summary of the method: as §1

[41] = tested on: CAL-148; assay: as above; remark: listed apart in the source
Summary of the method: as §1

[42] = tested on: CAL-51; assay: as above; remark: listed apart in the source
Summary of the method: as §1

[43] = tested on: CAL-85-1; assay: as above; remark: listed apart in the source
Summary of the method: as §1

[44] = tested on: DU-4475; assay: as above; remark: listed apart in the source
Summary of the method: as §1

[45] = tested on: HCC1143; assay: as above; remark: listed apart in the source
Summary of the method: as §1

[46] = tested on: HCC1599; assay: as above; remark: listed apart in the source
Summary of the method: as §1

[47] = tested on: HCC1937; assay: as above; remark: listed apart in the source
Summary of the method: as §1

[48] = tested on: HDQ-P1; assay: as above; remark: listed apart in the source
Summary of the method: as §1

[49] = tested on: Hs578T; assay: as above; remark: listed apart in the source
Summary of the method: as §1

[50] = tested on: MCF-10A; assay: as above; remark: listed apart in the source
Summary of the method: as §1

[51] = tested on: MDA-MB-231; assay: as above; remark: listed apart in the source
Summary of the method: as §1

[52] = tested on: MDA-MB-436; assay: as above; remark: listed apart in the source
Summary of the method: as §1

[53] = tested on: MDA-MB-453; assay: as above; remark: listed apart in the source
Summary of the method: as §1

[54] = tested on: MDA-MB-468; assay: as above; remark: listed apart in the source
Summary of the method: as §1

[55] = tested on: MFM-223; assay: as above; remark: listed apart in the source
Summary of the method: as §1

[56] = tested on: SK-BR-3; assay: as above; remark: listed apart in the source
Summary of the method: as §1

C[C@]1(O)C[C@@H](c2nc(-c3ccc4ccc(-c5ccccc5)nc4c3)c3c(N)nccn32)C1 [Linsitinib] (100 nM)
normalised response [1]: 99.3%
normalised response [2]: 102%
normalised response [3]: 97.2%
normalised response [4]: 76.6%
normalised response [5]: 95.5%
normalised response [6]: 90.8%
normalised response [7]: 96.2%
normalised response [8]: 73%
normalised response [9]: 93.8%
normalised response [10]: 93.2%
normalised response [11]: 92.7%
normalised response [12]: 83.4%
normalised response [13]: 52.9%
normalised response [14]: 99.3%
normalised response [15]: 99.8%
normalised response [16]: 91.3%
normalised response [17]: 100%
normalised response [18]: 90.4%
normalised response [19]: 90%
normalised response [20]: 105%
normalised response [21]: 89.7%
normalised response [22]: 97.8%
normalised response [23]: 98.1%
normalised response [24]: 107%
normalised response [25]: 107%
normalised response [26]: 99.8%
normalised response [27]: 106%
normalised response [28]: 72.8%
normalised response [29]: 93.9%
normalised response [30]: 88.9%
normalised response [31]: 90.7%
normalised response [32]: 85.6%
normalised response [33]: 91.4%
normalised response [34]: 84.8%

C[C@]1(O)C[C@@H](c2nc(-c3ccc4ccc(-c5ccccc5)nc4c3)c3c(N)nccn32)C1 [Linsitinib] (1000 nM)
normalised response [1]: 91%
normalised response [2]: 108%
normalised response [3]: 94.9%
normalised response [4]: 105%
normalised response [5]: 104%
normalised response [6]: 97.3%
normalised response [7]: 94.9%
normalised response [8]: 76.7%
normalised response [9]: 94.6%
normalised response [35]: 124%
normalised response [10]: 87.9%
normalised response [36]: 93.5%
normalised response [11]: 75%
normalised response [12]: 102%
normalised response [13]: 73.8%
normalised response [14]: 102%
normalised response [37]: 75.2%
normalised response [15]: 96.5%
normalised response [38]: 78%
normalised response [39]: 88.6%
normalised response [40]: 88%
normalised response [41]: 101%
normalised response [42]: 94%
normalised response [43]: 85.5%
normalised response [44]: 92.5%
normalised response [45]: 88.7%
normalised response [46]: 92%
normalised response [47]: 98.9%
normalised response [48]: 76.8%
normalised response [49]: 101%
normalised response [50]: 48.5%
normalised response [51]: 85.9%
normalised response [52]: 95.5%
normalised response [53]: 83.8%
normalised response [54]: 79.6%
normalised response [55]: 94.5%
normalised response [56]: 69.8%

COc1cc(F)c(F)c(Nc2ccc(I)cc2F)c1NS(=O)(=O)C1(C[C@H](O)CO)CC1 [Refametinib] (1000 nM)
normalised response [1]: 99.7%
normalised response [2]: 115%
normalised response [3]: 86.8%
normalised response [4]: 99.3%
normalised response [5]: 101%
normalised response [6]: 46.6%
normalised response [7]: 57.4%
normalised response [8]: 70.5%
normalised response [9]: 95.8%
normalised response [35]: 113%
normalised response [10]: 82.9%
normalised response [36]: 109%
normalised response [11]: 92.6%
normalised response [12]: 39.2%
normalised response [13]: 97.5%
normalised response [14]: 106%
normalised response [37]: 120%
normalised response [15]: 99.6%
normalised response [38]: 62.4%
normalised response [39]: 95.7%
normalised response [40]: 66.1%
normalised response [41]: 89.2%
normalised response [42]: 99.3%
normalised response [43]: 52.2%
normalised response [44]: 0.17%
normalised response [45]: 77.2%
normalised response [46]: 116%
normalised response [47]: 79.4%
normalised response [48]: 54.5%
normalised response [49]: 80.1%
normalised response [50]: 28.3%
normalised response [51]: 59.4%
normalised response [52]: 78.4%
normalised response [53]: 96.3%
normalised response [54]: 72.7%
normalised response [55]: 75.9%
normalised response [56]: 82.4%

CC(=O)c1c(C)c2cnc(Nc3ccc(N4CCNCC4)cn3)nc2n(C2CCCC2)c1=O [Palbociclib] (1000 nM)
normalised response [1]: 95.2%
normalised response [2]: 109%
normalised response [3]: 102%
normalised response [4]: 89.8%
normalised response [5]: 126%
normalised response [6]: 114%
normalised response [7]: 99%
normalised response [8]: 70.3%
normalised response [9]: 98.1%
normalised response [35]: 102%
normalised response [10]: 103%
normalised response [36]: 108%
normalised response [11]: 105%
normalised response [12]: 109%
normalised response [13]: 100%
normalised response [14]: 101%
normalised response [37]: 167%
normalised response [15]: 98.4%
normalised response [38]: 78.1%
normalised response [39]: 102%
normalised response [40]: 84.6%
normalised response [41]: 86.2%
normalised response [42]: 103%
normalised response [43]: 104%
normalised response [44]: 94.4%
normalised response [45]: 80.3%
normalised response [46]: 91.6%
normalised response [47]: 94.8%
normalised response [48]: 105%
normalised response [49]: 93.3%
normalised response [50]: 82.5%
normalised response [51]: 84%
normalised response [52]: 96.6%
normalised response [53]: 102%
normalised response [54]: 86.7%
normalised response [55]: 72.6%
normalised response [56]: 75.9%

CC(=O)N(O)CCCCCNC(=O)CCC(=O)N(O)CCCCCNC(=O)CCC(=O)N(O)CCCCCN [Deferoxamine] (1000 nM)
normalised response [1]: 96.8%
normalised response [2]: 102%
normalised response [3]: 96.8%
normalised response [4]: 2.01%
normalised response [5]: 91.1%
normalised response [6]: 110%
normalised response [7]: 97.5%
normalised response [8]: 82.2%
normalised response [9]: 96.7%
normalised response [35]: -39.7%
normalised response [10]: 106%
normalised response [36]: 97.3%
normalised response [11]: 79.7%
normalised response [12]: 96.7%
normalised response [13]: 73.7%
normalised response [14]: 100%
normalised response [37]: 143%
normalised response [15]: 70.8%
normalised response [38]: 90.9%
normalised response [39]: 72.7%
normalised response [40]: 96.1%
normalised response [41]: 59.6%
normalised response [42]: 88.7%
normalised response [43]: 102%
normalised response [44]: 85.8%
normalised response [45]: 79.5%
normalised response [46]: 98.2%
normalised response [47]: 76.8%
normalised response [48]: 93.6%
normalised response [49]: 96.8%
normalised response [50]: 97.7%
normalised response [51]: 86.8%
normalised response [52]: 87.4%
normalised response [53]: 84.2%
normalised response [54]: 63.3%
normalised response [55]: 89.5%
normalised response [56]: 84.2%
